Measured values as given in US8802597B2, “Herbicidal pyrimidines” (E I du Pont de Nemours and Company, priority 2003, dated 2014).

How the values were obtained:
Assay type in all cases: in vivo
[1] = test system: chickweed (Stellaria media); assay: Test C postemergence; settings: for Plant response rating, Chickweed: scale 0 to 100
Procedure, shortened: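 Greenhouse herbicide screen, visual readout. Compound in solvent/surfactant applied preemergence at planting or postemergence to 1- to 4-leaf plants; assessed at 12–14 days on a 0–100 control scale.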

kochia (Kochia scoparia) = assay: Test C pre/postemergence; settings: Postemergence
Text: (§1) Seeds or nutlets of plant species selected from bermudagrass (Cynodon dactylon), Surinam grass (Brachiaria decumbens), cocklebur (Xanthium strumarium), corn (Zea mays), crabgrass (Digitaria sanguinalis), woolly cupgrass (Eriochloa villosa), giant foxtail (Setaria faberii), goosegrass (Eleusine indica), johnsongrass (Sorghum halepense), kochia (Kochia scoparia), lambsquarters (Chenopodium album), morningglory (Ipomoea coccinea), eastern black nightshade (Solanum ptycanthum), yellow nutsedge (Cyperus esculentus), pigweed (Amaranthus retroflexus), common ragweed (Ambrosia elatior), soybean (Glycine max), common (oilseed) sunflower (Helianthus annuus), and velvetleaf (Abutilon theophrasti) were planted and treated preemergence with test chemicals formulated in a non-phytotoxic solvent mixture which included a surfactant.
(§2) At the same time, plants selected from these crop and weed species and also winter barley (Hordeum vulgare), blackgrass (Alopecurus myosuroides), canarygrass (Phalaris minor), chickweed (Stellaria media), downy brome (Bromus tectorum), green foxtail (Setaria viridis), Italian ryegrass (Lolium multiflorum), wheat (Triticum aestivum), wild oat (Avena fatua) and windgrass (Apera spica-venti) were treated with postemergence applications of some of the test chemicals formulated in the same manner. Plants ranged in height from 2 to 18 cm (1- to 4-leaf stage) for postemergence treatments. Plant species in the flooded paddy test consisted of rice (Oryza sativa), umbrella sedge (Cyperus difformis), duck salad (Heteranthera limosa) and barnyardgrass (Echinochloa crus-galli) grown to the 2-leaf stage for testing. Treated plants and controls were maintained in a greenhouse for 12 to 14 days, after which time all species were compared to controls and visually evaluated. Plant response ratings, summarized in Table C, are based on a scale of 0 to 100 where 0 is no effect and 100 is complete control. A dash (-) response means no test result.

[2] = test system: woolly cupgrass (Eriochloa villosa); assay: Test C pre/postemergence; settings: Postemergence
Text: as §1, §2

[3] = test system: pigweed (Amaranthus retroflexus); assay: Test C pre/postemergence; settings: Postemergence
Text: as §1, §2

[4] = test system: giant foxtail (Setaria faberii); assay: Test C pre/postemergence; settings: Postemergence
Text: as §1, §2

[5] = test system: yellow nutsedge (Cyperus esculentus); assay: Test C pre/postemergence; settings: Postemergence
Text: as §1, §2

[6] = test system: common ragweed (Ambrosia elatior); assay: Test C pre/postemergence; settings: Postemergence
Text: as §1, §2

soybean (Glycine max) = assay: Test C pre/postemergence; settings: Postemergence
Text: as §1, §2

[7] = test system: johnsongrass (Sorghum halepense); assay: Test C pre/postemergence; settings: Postemergence
Text: as §1, §2

[8] = test system: morningglory (Ipomoea coccinea); assay: Test C pre/postemergence; settings: Postemergence
Text: as §1, §2

[9] = test system: Surinam grass (Brachiaria decumbens); assay: Test C pre/postemergence; settings: Postemergence
Text: as §1, §2

[10] = 62 g ai/ha, scale 0 to 100 (0 no effect, 100 complete control)
[11] = 125 g ai/ha, scale 0 to 100 (0 no effect, 100 complete control)

SMILES: COC(=O)c1nc(C2CC2)nc(N)c1I [Compound 7]
- pest or weed control at 62 g/ha ([1]; Stellaria media, post-emergence, 62 g ai/ha, scale 0 to 100 (0 no effect, 100 complete control), read-out: Chickweed plant response rating): 0%
- pest or weed control at 125 g/ha ([1]; Stellaria media, post-emergence, 125 g ai/ha, scale 0 to 100, read-out: Plant response rating, Chickweed): 0%
- pest or weed control at 250 g/ha ([1]; Stellaria media, post-emergence, 250 g ai/ha, scale 0 to 100, read-out: Plant response rating, Chickweed): 0%
- pest or weed control at 500 g/ha ([1]; Stellaria media, post-emergence, 500 g ai/ha, scale 0 to 100, read-out: Plant response rating, Chickweed): 0%
- pest or weed control at 62 g/ha (kochia (Kochia scoparia); Bassia scoparia, post-emergence, 62 g ai/ha, scale 0 to 100 (0 no effect, 100 complete control), read-out: Kochia plant response rating): 40%
- pest or weed control at 125 g/ha (kochia (Kochia scoparia); Bassia scoparia, post-emergence, 125 g ai/ha, scale 0 to 100 (0 no effect, 100 complete control), read-out: Kochia plant response rating): 65%
- pest or weed control at 250 g/ha (kochia (Kochia scoparia); Bassia scoparia, post-emergence, 250 g ai/ha, scale 0 to 100, read-out: Plant response rating, Kochia): 70%
- pest or weed control at 500 g/ha (kochia (Kochia scoparia); Bassia scoparia, post-emergence, 500 g ai/ha, scale 0 to 100, read-out: Plant response rating, Kochia): 80%
- pest or weed control at 62 g/ha ([2]; Eriochloa villosa, post-emergence, 62 g ai/ha, scale 0 to 100 (0 no effect, 100 complete control), read-out: Cupgrass, Woolly plant response rating): 0%
- pest or weed control at 125 g/ha ([2]; Eriochloa villosa, post-emergence, 125 g ai/ha, scale 0 to 100 (0 no effect, 100 complete control), read-out: Cupgrass, Woolly plant response rating): 0%
- pest or weed control at 250 g/ha ([2]; Eriochloa villosa, post-emergence, 250 g ai/ha, scale 0 to 100, read-out: Plant response rating, Cupgrass, Woolly): 0%
- pest or weed control at 500 g/ha ([2]; Eriochloa villosa, post-emergence, 500 g ai/ha, scale 0 to 100, read-out: Plant response rating, Cupgrass, Woolly): 20%
- pest or weed control at 62 g/ha ([3]; Amaranthus retroflexus, post-emergence, 62 g ai/ha, scale 0 to 100 (0 no effect, 100 complete control), read-out: Pigweed plant response rating): 20%
- pest or weed control at 125 g/ha ([3]; Amaranthus retroflexus, post-emergence, 125 g ai/ha, scale 0 to 100 (0 no effect, 100 complete control), read-out: Pigweed plant response rating): 40%
- pest or weed control at 250 g/ha ([3]; Amaranthus retroflexus, post-emergence, 250 g ai/ha, scale 0 to 100, read-out: Plant response rating, Pigweed): 40%
- pest or weed control at 500 g/ha ([3]; Amaranthus retroflexus, post-emergence, 500 g ai/ha, scale 0 to 100, read-out: Plant response rating, Pigweed): 55%
- pest or weed control at 125 g/ha ([4]; Setaria faberi, post-emergence, 125 g ai/ha, scale 0 to 100 (0 no effect, 100 complete control), read-out: Foxtail, Giant plant response rating): 0%
- pest or weed control at 500 g/ha ([4]; Setaria faberi, post-emergence, 500 g ai/ha, scale 0 to 100, read-out: Plant response rating, Foxtail, Giant): 10%
- pest or weed control at 62 g/ha ([4]; Setaria faberi, post-emergence, 62 g ai/ha, scale 0 to 100 (0 no effect, 100 complete control), read-out: Foxtail, Giant plant response rating): 0%
- pest or weed control at 250 g/ha ([4]; Setaria faberi, post-emergence, 250 g ai/ha, scale 0 to 100, read-out: Plant response rating, Foxtail, Giant): 0%
- pest or weed control at 62 g/ha ([5]; Cyperus, post-emergence, 62 g ai/ha, scale 0 to 100 (0 no effect, 100 complete control), read-out: Nutsedge, Yellow plant response rating): 0%
- pest or weed control at 125 g/ha ([5]; Cyperus, post-emergence, 125 g ai/ha, scale 0 to 100 (0 no effect, 100 complete control), read-out: Nutsedge, Yellow plant response rating): 0%
- pest or weed control at 250 g/ha ([5]; Cyperus, post-emergence, 250 g ai/ha, scale 0 to 100, read-out: Plant response rating, Nutsedge, Yellow): 0%
- pest or weed control at 500 g/ha ([5]; Cyperus, post-emergence, 500 g ai/ha, scale 0 to 100, read-out: Plant response rating, Nutsedge, Yellow): 0%
- pest or weed control at 62 g/ha ([6]; Ambrosia artemisiifolia, post-emergence, 62 g ai/ha, scale 0 to 100 (0 no effect, 100 complete control), read-out: Ragweed plant response rating): 25%
- pest or weed control at 125 g/ha ([6]; Ambrosia artemisiifolia, post-emergence, 125 g ai/ha, scale 0 to 100 (0 no effect, 100 complete control), read-out: Ragweed plant response rating): 35%
- pest or weed control at 250 g/ha ([6]; Ambrosia artemisiifolia, post-emergence, 250 g ai/ha, scale 0 to 100, read-out: Plant response rating, Ragweed): 65%
- pest or weed control at 500 g/ha ([6]; Ambrosia artemisiifolia, post-emergence, 500 g ai/ha, scale 0 to 100, read-out: Plant response rating, Ragweed): 75%
- plant injury at 62 g/ha (soybean (Glycine max); Glycine max, post-emergence, 62 g ai/ha, scale 0 to 100 (0 no effect, 100 complete control), read-out: Soybean plant response rating): 25%
- plant injury at 125 g/ha (soybean (Glycine max); Glycine max, post-emergence, 125 g ai/ha, scale 0 to 100 (0 no effect, 100 complete control), read-out: Soybean plant response rating): 25%
- plant injury at 250 g/ha (soybean (Glycine max); Glycine max, post-emergence, 250 g ai/ha, scale 0 to 100, read-out: Plant response rating, Soybean): 35%
- plant injury at 500 g/ha (soybean (Glycine max); Glycine max, post-emergence, 500 g ai/ha, scale 0 to 100, read-out: Plant response rating, Soybean): 60%
- pest or weed control at 62 g/ha ([7]; Sorghum halepense, post-emergence, 62 g ai/ha, scale 0 to 100 (0 no effect, 100 complete control), read-out: Johnsongrass plant response rating): 0%
- pest or weed control at 125 g/ha ([7]; Sorghum halepense, post-emergence, 125 g ai/ha, scale 0 to 100 (0 no effect, 100 complete control), read-out: Johnsongrass plant response rating): 0%
- pest or weed control at 250 g/ha ([7]; Sorghum halepense, post-emergence, 250 g ai/ha, scale 0 to 100, read-out: Plant response rating, Johnsongrass): 0%
- pest or weed control at 500 g/ha ([7]; Sorghum halepense, post-emergence, 500 g ai/ha, scale 0 to 100, read-out: Plant response rating, Johnsongrass): 0%
- pest or weed control at 125 g/ha ([8]; Ipomoea, post-emergence, 125 g ai/ha, scale 0 to 100 (0 no effect, 100 complete control), read-out: Morningglory plant response rating): 50%
- pest or weed control at 250 g/ha ([8]; Ipomoea, post-emergence, 250 g ai/ha, scale 0 to 100, read-out: Plant response rating, Morningglory): 55%
- pest or weed control at 500 g/ha ([8]; Ipomoea, post-emergence, 500 g ai/ha, scale 0 to 100, read-out: Plant response rating, Morningglory): 65%
- pest or weed control at 125 g/ha ([9]; Urochloa decumbens, post-emergence, 125 g ai/ha, scale 0 to 100 (0 no effect, 100 complete control), read-out: Surinam Grass plant response rating): 0%
- pest or weed control at 500 g/ha ([9]; Urochloa decumbens, post-emergence, 500 g ai/ha, scale 0 to 100, read-out: Plant response rating, Surinam Grass): 0%
- pest or weed control at 62 g/ha ([9]; Urochloa decumbens, post-emergence, 62 g ai/ha, scale 0 to 100 (0 no effect, 100 complete control), read-out: Surinam Grass plant response rating): 0%
- pest or weed control at 250 g/ha ([9]; Urochloa decumbens, post-emergence, 250 g ai/ha, scale 0 to 100, read-out: Plant response rating, Surinam Grass): 0%

SMILES: CCOC(=O)c1nc(-c2ccc(Cl)cc2)nc(N)c1Br [Compound 37]
- Chickweed plant response rating [1, 10]: 0
- Chickweed plant response rating [1, 11]: 0
- Plant response rating, Chickweed ([1]; 250 g ai/ha): 0
- Plant response rating, Chickweed ([1]; 500 g ai/ha): 0
- Kochia plant response rating (kochia (Kochia scoparia); [10]): 0
- Kochia plant response rating (kochia (Kochia scoparia); [11]): 90
- Plant response rating, Kochia (kochia (Kochia scoparia); 250 g ai/ha, scale 0 to 100): 95
- Plant response rating, Kochia (kochia (Kochia scoparia); 500 g ai/ha, scale 0 to 100): 95
- Cupgrass, Woolly plant response rating [2, 10]: 0
- Cupgrass, Woolly plant response rating [2, 11]: 0
- Plant response rating, Cupgrass, Woolly ([2]; 250 g ai/ha, scale 0 to 100): 0
- Plant response rating, Cupgrass, Woolly ([2]; 500 g ai/ha, scale 0 to 100): 45
- Pigweed plant response rating [3, 10]: 0
- Pigweed plant response rating [3, 11]: 95
- Plant response rating, Pigweed ([3]; 250 g ai/ha, scale 0 to 100): 100
- Plant response rating, Pigweed ([3]; 500 g ai/ha, scale 0 to 100): 100
- Foxtail, Giant plant response rating [4, 10]: 0
- Foxtail, Giant plant response rating [4, 11]: 0
- Plant response rating, Foxtail, Giant ([4]; 250 g ai/ha, scale 0 to 100): 40
- Plant response rating, Foxtail, Giant ([4]; 500 g ai/ha, scale 0 to 100): 45
- Nutsedge, Yellow plant response rating [5, 10]: 0
- Nutsedge, Yellow plant response rating [5, 11]: 0
- Plant response rating, Nutsedge, Yellow ([5]; 250 g ai/ha, scale 0 to 100): 0
- Plant response rating, Nutsedge, Yellow ([5]; 500 g ai/ha, scale 0 to 100): 20
- Ragweed plant response rating [6, 10]: 0
- Ragweed plant response rating [6, 11]: 80
- Plant response rating, Ragweed ([6]; 250 g ai/ha, scale 0 to 100): 90
- Plant response rating, Ragweed ([6]; 500 g ai/ha, scale 0 to 100): 95
- Soybean plant response rating (soybean (Glycine max); [10]): 20
- Soybean plant response rating (soybean (Glycine max); [11]): 85
- Plant response rating, Soybean (soybean (Glycine max); 250 g ai/ha, scale 0 to 100): 95
- Plant response rating, Soybean (soybean (Glycine max); 500 g ai/ha, scale 0 to 100): 100
- Johnsongrass plant response rating [7, 10]: 0
- Johnsongrass plant response rating [7, 11]: 20
- Plant response rating, Johnsongrass ([7]; 500 g ai/ha, scale 0 to 100): 55
- Morningglory plant response rating [8, 10]: 0
- Morningglory plant response rating [8, 11]: 65
- Plant response rating, Morningglory ([8]; 250 g ai/ha, scale 0 to 100): 80
- Plant response rating, Morningglory ([8]; 500 g ai/ha, scale 0 to 100): 95
- Surinam Grass plant response rating [9, 10]: 0
- Surinam Grass plant response rating [9, 11]: 0
- Plant response rating, Surinam Grass ([9]; 250 g ai/ha, scale 0 to 100): 0
- Plant response rating, Surinam Grass ([9]; 500 g ai/ha, scale 0 to 100): 0
